Assay results as given in US8765941B2 (Kino Pharma, Inc., priority 2008, dated 2014).
Where two headings read alike, the source gives them in different places.

Assays:
[1] = test system: HCV-NS5A protein; assay: HCV protein expression-suppressing activity by Western blotting in LuHCV cells; format: cell-based, hepatitis C virus (HCV); details: 20 μM, 14 hours and 60 hours
Procedure: LuHCV cells were plated onto 10-cm dishes at 1×10^6 cells/dish and then incubated overnight or longer. Subsequently, Compound 5 dissolved in DMSO was added at a final concentration of 20 μM. Cells were further gently cultured under culture conditions of 37° C. and 5% CO2. DMSO alone was added to a control dish. At 14 hours and 60 hours after addition of Compound 5, cells were collected. Cells were lysed using a cell lysis solution (25 mM NaPO4 (pH 7.5), 150 mM NaCl, 1% Triton X-100, 1 mM EDTA, 20% glycerol, and protease inhibitor cocktail (Roche Diagnostics)), so that cell extracts were obtained. With the use of the thus obtained cell extracts (10 μg each), expression analysis was performed by Western blotting for an HCV-NS5A protein (an antibody was purchased from Virogen) and β-actin (an antibody was purchased from Sigma).

[2] = test system: HCV RNA (NS5A); assay: Effects on replication and stability of HCV RNA (RT-PCR) in LuHCV cells; format: cell-based, hepatitis C virus (HCV); details: 20 μM, 14 hours and 60 hours
Procedure: LuHCV cells were plated onto 10-cm dishes at 1×10^6 cells/dish and then incubated overnight or longer. Subsequently, Compound 5 dissolved in DMSO was added at a final concentration of 20 μM. Cells were further gently cultured under culture conditions of 37° C. and 5% CO2. DMSO alone was added to a control dish. At 14 hours and 60 hours after addition of Compound 5, cells were collected and then total RNA was extracted using Sepasol-RNA (NACALAI TESQUE, INC.). cDNA was synthesized using SuperScript II reverse transcriptase (Invitrogen) and oligo-dTprimer (Promega) or random primers (Invitrogen Corporation). PCR was performed using the thus synthesized cDNA as a template, NS5A-specific primers (5′-[…]-3′ (SEQ ID NO: 1) and 5′-[…]-3′ (SEQ ID NO: 2)), GAPDH primers (5′-[…]-3′ (SEQ ID NO: 3) and 5′-[…]-3′ (SEQ ID NO: 4)), and PrimeSTAR HS DNA polymerase (Takara Bio Inc.). After DNA amplification reaction, agarose gel electrophoresis and ethidium bromide staining were performed. The expression level of each gene was evaluated using a UV transilluminator.

[3] = test system: LuHCV cells; assay: Effects on the growth of LuHCV cells (hemocytometer count); format: cell-based, human; details: 20 μM, 0, 6, 12, 24, 36 and 48 hours
Procedure: LuHCV cells were plated onto a 6-well plate at 5×10^4 cells/1 mL/well and then incubated overnight. […] The final concentration of Compound 5 was 20 μM. […] After addition of Compound 5, cells were collected from 3 wells at 0, 6, 12, 24, 36, and 48 hours later, the number of viable cells per well was measured using a hemocytometer, and then the average value was calculated. Wells to which only DMSO had been added were used as control wells.

[4] = Toxicity test by repeated in vivo administration; design: species or system mice (Cr1j/CD1 (ICR) mice, male); details: oral
Procedure: A conditioning period of one week (day-7 to day-1) was provided for mice (Cr1j/CD1 (ICR) mice, male, 5-week-old), and then the mice were grouped based on the mean body weight on the day before the initiation of the test. Also, the dose of Compound 5 was calculated based on the mean body weight (day-1). There were 2 groups to which Compound 5 was administered: a placebo-administered group (n=6) to which a placebo was administered and a Compound 5-administered group (n=6) to which Compound 5 was administered. On the days of administration (day 00 to day 07), the test compound formulated using 0.5% carboxymethyl cellulose was administered via oral administration for 7 days in a row. Symptoms were observed during the administration period.
During the test period, the body weight of each mouse was weighed on day −7, day −3, day −1, day 4, and day 7.

[5] = test system: influenza virus
[6] = test system: intracellular HCV protein (NS3-NS4-NS5A-NS5B); assay: HCV viral protein expression assay using LuHCV cells (luciferase activity); details: 48 hours, LuHCV cells
Procedure: As an HCV viral protein expression assay, screening was performed for compounds having anti-HCV activity using human hepatocytes with which the replication and expression of the intracellular HCV protein (NS3-NS4-NS5A-NS5B) can be evaluated through determination of luciferase activity (hereinafter, referred to as LuHCV).
LuHCV cells were plated onto 96-well plates at 5×10^3 cells/50 μL/well and then incubated overnight. Test compounds were each dissolved in dimethyl sulfoxide (DMSO) and dilution series were prepared using DMSO, if necessary. On the next day of plating of LuHCV cells, a medium containing a test compound with a concentration twice the final test concentration was added at 50 μL/well. Cells were gently cultured under culture conditions of 48 hours, 37° C., and 5% CO2 (the final concentrations of the test compounds: 0, 10, and 20 μM). At this time, analysis was made using 3 test wells for each test compound and for each concentration.
Culture medium was removed after 48 hours. Glo lysis buffer (100 μL) (Promega) was added to each well and then cells were disrupted, so that a cell extract was obtained. With the use of 50 μL of the thus obtained cell extract, 50 μL of a Bright-Glo™ Luciferase Assay System (Promega) reagent was added. Luciferase activity in the extract was determined by measuring luminescence intensity for one second using a measuring device ARVO (PerkinElmer Co., Ltd.).
Based on the thus obtained numerical values of luminescence intensity, an average value for each test compound at each concentration was calculated. The luminescence intensity percentage for each test compound was calculated based on a luminescence intensity for DMSO (used as a control for test substances) as 100%.
Culture medium was removed after 48 hours. Glo Lysis buffer (100 μL) (Promega) was added to each well and then cells were disrupted, so that a cell extract was obtained. With the use of 50 μL of the thus obtained cell extract, 50 μL of a Bright-Glo™ Luciferase Assay System (Promega) reagent was added. Luciferase activity in the extract was determined by measuring luminescence intensity for one second using a measuring device ARVO (PerkinElmer Co., Ltd.).
Based on the thus obtained numerical values of luminescence intensity, an average value for each test compound at each concentration was calculated. The luminescence intensity percentage for each test compound was calculated based on a luminescence intensity of DMSO (used as a control for test substances) as 100%.

O=C(NC(=S)Nc1cc(C(F)(F)F)ccc1N1CCCCCCC1)c1cccnc1 [Compound 5, N-nicotinoyl-N′-[2-(azacyclooctan-1-yl)-5-(trifluoromethyl)phenyl]thiourea]
expression level of NS5A (Western blotting) [1]: a decrease in the expression level of NS5A was observed | expression level of β-actin (Western blotting) [1]: no change was observed | amount of NS5A and GAPDH RNA (RT-PCR) [2]: no quantitative change was observed | number of viable cells at each time point versus DMSO control [3]: Almost no differences were observed | dead mice during the administration period ([4]; 1000 mg/kg/day, 7 days): no dead mice were observed | level at which no adverse effect is observed ([4]; 7 days repeated administration, mice): ≥ 1000 mg/kg | viability (% control) ([5]; 5 µM): 41.8 ± 2.2 % control | viability (% control) ([5]; 10 µM): 63.1 ± 0.9 % control | cell death due to influenza virus infection (result in words) ([5]; 5 and 10 μM, 48 hours, MDCK cells): cell death was decreased | luciferase activity (result in words) ([6]; 0, 10 and 20 μM): Decreases in luciferase activity | decrease in luminescence intensity compared with the control ([6]; 10 μM): about 50%
